The target in assay [1] is T1, von Hippel-Lindau disease tumor suppressor/Histone-lysine N-methyltransferase, H3 lysine-79 specific (Homo sapiens, UniProt Q8TEK3+P40337). Put plainly: PROTAC activity at VHL/DOTIL in mixed-lineage leukemia rearranged (MLL-r) human THP-1 cells assessed as induction of DOT1L degradation by measuring fold change in DOTIL protein level at 0.3 uM incubated for 24 hrs by western blot analysis relative to control. Type of assay: cell-based. (In general: A western blot detects proteins with antibodies after separation by electrophoresis.)
T1 sequence (P40337 whole entry, looked up): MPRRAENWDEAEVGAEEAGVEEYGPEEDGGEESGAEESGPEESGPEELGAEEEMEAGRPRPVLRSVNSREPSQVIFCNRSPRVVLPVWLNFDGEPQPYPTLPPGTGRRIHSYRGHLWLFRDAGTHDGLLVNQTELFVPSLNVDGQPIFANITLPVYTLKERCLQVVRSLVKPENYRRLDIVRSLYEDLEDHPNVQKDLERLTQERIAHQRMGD
T1 sequence (Q8TEK3 whole entry, looked up): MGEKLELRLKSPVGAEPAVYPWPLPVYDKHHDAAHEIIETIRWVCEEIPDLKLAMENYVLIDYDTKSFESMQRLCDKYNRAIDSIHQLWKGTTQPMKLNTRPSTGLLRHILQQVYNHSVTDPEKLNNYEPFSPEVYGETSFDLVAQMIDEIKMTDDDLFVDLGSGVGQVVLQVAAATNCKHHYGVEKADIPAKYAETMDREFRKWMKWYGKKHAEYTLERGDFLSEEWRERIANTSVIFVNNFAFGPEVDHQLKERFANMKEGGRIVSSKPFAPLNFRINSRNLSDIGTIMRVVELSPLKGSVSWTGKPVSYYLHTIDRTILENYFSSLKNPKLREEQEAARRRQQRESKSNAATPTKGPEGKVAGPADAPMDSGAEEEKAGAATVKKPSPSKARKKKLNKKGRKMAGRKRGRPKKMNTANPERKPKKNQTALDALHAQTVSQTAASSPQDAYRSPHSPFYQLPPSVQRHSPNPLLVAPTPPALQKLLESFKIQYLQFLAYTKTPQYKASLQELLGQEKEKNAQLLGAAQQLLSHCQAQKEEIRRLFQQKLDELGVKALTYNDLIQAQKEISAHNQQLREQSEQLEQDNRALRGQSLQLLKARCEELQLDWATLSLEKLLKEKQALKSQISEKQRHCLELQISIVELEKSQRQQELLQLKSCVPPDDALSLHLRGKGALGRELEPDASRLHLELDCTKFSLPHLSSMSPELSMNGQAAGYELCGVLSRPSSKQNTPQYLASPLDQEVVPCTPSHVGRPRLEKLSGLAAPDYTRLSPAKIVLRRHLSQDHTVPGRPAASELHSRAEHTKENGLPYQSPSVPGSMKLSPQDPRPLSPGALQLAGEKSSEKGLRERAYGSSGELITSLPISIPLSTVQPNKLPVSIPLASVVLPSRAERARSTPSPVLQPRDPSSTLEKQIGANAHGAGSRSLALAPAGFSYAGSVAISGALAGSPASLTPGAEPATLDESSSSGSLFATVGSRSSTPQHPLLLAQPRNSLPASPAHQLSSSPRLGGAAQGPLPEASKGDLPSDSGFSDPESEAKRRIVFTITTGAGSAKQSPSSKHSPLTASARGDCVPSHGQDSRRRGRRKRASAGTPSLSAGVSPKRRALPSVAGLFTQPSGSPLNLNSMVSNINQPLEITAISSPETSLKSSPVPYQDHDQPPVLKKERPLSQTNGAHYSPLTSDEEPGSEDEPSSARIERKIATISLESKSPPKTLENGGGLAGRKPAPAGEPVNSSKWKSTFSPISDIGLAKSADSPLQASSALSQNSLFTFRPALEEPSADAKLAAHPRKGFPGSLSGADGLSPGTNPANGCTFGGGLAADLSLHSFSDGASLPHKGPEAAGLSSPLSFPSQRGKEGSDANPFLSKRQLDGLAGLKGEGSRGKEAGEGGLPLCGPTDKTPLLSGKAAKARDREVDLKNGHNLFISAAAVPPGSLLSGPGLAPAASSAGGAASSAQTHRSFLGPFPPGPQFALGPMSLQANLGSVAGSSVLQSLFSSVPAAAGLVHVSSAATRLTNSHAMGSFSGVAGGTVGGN

Assay [2] addresses T1, von Hippel-Lindau disease tumor suppressor/Histone-lysine N-methyltransferase, H3 lysine-79 specific. The assay is described as follows: PROTAC activity at VHL/DOTIL in mixed-lineage leukemia rearranged (MLL-r) human THP-1 cells assessed as induction of DOT1L degradation by measuring reduction in DOTIL protein level at 0.3 uM incubated for 24 hrs by western blot analysis relative to control. Details: scale not given: the % may be the effect or the level left. Type of assay: cell-based.

The target is the same in assay [3]. The assay is described as follows: PROTAC activity at VHL/DOTIL in mixed-lineage leukemia rearranged (MLL-r) human THP-1 cells assessed as induction of DOT1L degradation by measuring reduction in DOTIL protein level at 3 uM incubated for 24 hrs by western blot analysis relative to control. The assay is classed as cell-based. Details: scale not given: the % may be the effect or the level left.

Assay [4] has the same target. The assay is described as follows: PROTAC activity at VHL/DOT1L in mixed-lineage leukemia rearranged (MLL-r) human THP-1 cells assessed as maximal induction of DOT1L degradation incubated for 24 hrs by western blot analysis relative to control. The assay is classed as cell-based.
Assay [5] has the same target. Put plainly: PROTAC activity at VHL/DOT1L in mixed-lineage leukemia rearranged (MLL-r) human MV4-11 cells assessed as maximal induction of DOT1L degradation incubated for 24 hrs by western blot analysis relative to control. Type of assay: cell-based.
The target is the same in assay [6]. The assay is described as follows: PROTAC activity at VHL/DOT1L in mixed-lineage leukemia rearranged (MLL-r) human THP-1 cells assessed as induction of DOTIL degradation by measuring fold change in DOT1L protein level at 3 uM incubated for 2 hrs by western blot analysis relative to control. The assay is classed as cell-based.
Assay [7] has the same target. Put plainly: PROTAC activity at VHL/DOT1L in mixed-lineage leukemia rearranged (MLL-r) human THP-1 cells assessed as induction of DOTIL degradation by measuring fold change in DOT1L protein level at 3 uM incubated for 4 hrs by western blot analysis relative to control. Type of assay: cell-based.
For assay [8] the target is unchanged. Put plainly: PROTAC activity at VHL/DOT1L in mixed-lineage leukemia rearranged (MLL-r) human MV4-11 cells assessed as induction of DOTIL degradation by measuring fold change in DOT1L protein level at 3 uM incubated for 24 hrs by western blot analysis relative to control. Type of assay: cell-based.
Assay [9] shares this target. Put plainly: PROTAC activity at VHL/DOT1L in mixed-lineage leukemia rearranged (MLL-r) human MV4-11 cells assessed as induction of DOTIL degradation by measuring fold change in H3K79Me2 level at 3 uM incubated for 4 hrs by western blot analysis relative to control. Type of assay: cell-based.
For assay [10] the target is unchanged. Put plainly: PROTAC activity at VHL/DOT1L in mixed-lineage leukemia rearranged (MLL-r) human MV4-11 cells assessed as induction of DOTIL degradation by measuring fold change in DOT1L protein level at 3 uM incubated for 48 hrs by western blot analysis relative to control. The assay is classed as cell-based.
Assay [11] has the same target. Put plainly: PROTAC activity at VHL/DOT1L in mixed-lineage leukemia rearranged (MLL-r) human MV4-11 cells assessed as induction of DOTIL degradation by measuring fold change in H3K79Me2 level at 3 uM incubated for 48 hrs by western blot analysis relative to control. The assay is classed as cell-based.
For assay [12] the target is unchanged. Put plainly: PROTAC activity against VHL/DOT1L in mixed-lineage leukemia rearranged (MLL-r) human THP-1 cells assessed as induction of DOT1L degradation at 3 uM preincubated with NAE inhibitor, MLN4924 for 1 hr followed by incubation with compound for 8 hrs by western blot analysis. Type of assay: cell-based.
For assay [13], the target named is T2, Histone-lysine N-methyltransferase EHMT1 (Homo sapiens) (UniProt Q9H9B1).
T2 sequence (whole entry): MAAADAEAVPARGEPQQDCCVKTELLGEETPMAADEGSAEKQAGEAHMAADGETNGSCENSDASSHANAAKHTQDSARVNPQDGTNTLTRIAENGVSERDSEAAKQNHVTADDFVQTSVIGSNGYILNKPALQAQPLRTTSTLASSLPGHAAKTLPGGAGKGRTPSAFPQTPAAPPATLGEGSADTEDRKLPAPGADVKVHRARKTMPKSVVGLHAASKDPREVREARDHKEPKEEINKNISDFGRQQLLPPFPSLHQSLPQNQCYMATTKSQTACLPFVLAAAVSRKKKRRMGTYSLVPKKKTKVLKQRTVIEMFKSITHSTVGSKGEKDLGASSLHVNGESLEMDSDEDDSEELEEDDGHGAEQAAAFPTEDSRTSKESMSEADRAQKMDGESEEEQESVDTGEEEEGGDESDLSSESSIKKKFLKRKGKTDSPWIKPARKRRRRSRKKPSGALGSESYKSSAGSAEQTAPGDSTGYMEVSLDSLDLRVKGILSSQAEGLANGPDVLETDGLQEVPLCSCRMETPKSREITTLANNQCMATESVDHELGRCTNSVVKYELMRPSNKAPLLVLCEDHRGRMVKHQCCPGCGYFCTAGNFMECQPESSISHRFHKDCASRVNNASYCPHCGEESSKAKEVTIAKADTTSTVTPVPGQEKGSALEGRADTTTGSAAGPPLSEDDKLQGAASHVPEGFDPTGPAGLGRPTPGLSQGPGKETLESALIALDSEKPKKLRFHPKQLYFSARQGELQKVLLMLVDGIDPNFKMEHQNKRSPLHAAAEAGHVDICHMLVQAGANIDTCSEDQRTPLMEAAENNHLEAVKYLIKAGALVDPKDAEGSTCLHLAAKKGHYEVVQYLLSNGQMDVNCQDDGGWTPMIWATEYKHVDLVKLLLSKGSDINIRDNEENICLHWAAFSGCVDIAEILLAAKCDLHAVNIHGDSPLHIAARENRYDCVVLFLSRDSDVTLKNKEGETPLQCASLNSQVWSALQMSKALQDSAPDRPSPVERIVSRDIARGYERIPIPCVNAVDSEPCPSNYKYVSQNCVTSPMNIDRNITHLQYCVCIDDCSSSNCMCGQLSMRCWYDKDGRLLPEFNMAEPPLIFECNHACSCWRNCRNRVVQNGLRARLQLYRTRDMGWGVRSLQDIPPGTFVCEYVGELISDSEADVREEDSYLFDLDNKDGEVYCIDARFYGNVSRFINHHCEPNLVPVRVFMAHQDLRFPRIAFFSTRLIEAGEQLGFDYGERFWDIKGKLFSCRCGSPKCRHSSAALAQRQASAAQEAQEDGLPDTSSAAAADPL
Put plainly: Inhibition of human GLP using Histone H3 and SAM as substrate at 10 uM by radiometric Hotspot assay.

The target in assay [14] is PRMT5/MEP50 complex (Homo sapiens) (UniProt O14744+Q9BQA1). The assay is described as follows: Inhibition of human PRMT5/MEP50 complex using histone H2A and SAM as substrate at 10 uM by radiometric Hotspot assay. Type of assay: protein-complex assay.
Assay [15] deals with Protein arginine N-methyltransferase 6 (Homo sapiens) (UniProt Q96LA8). Put plainly: Inhibition of PRMT6 (unknown origin) at 10 uM by radiometric methyltransferase assay.
Chain of Protein arginine N-methyltransferase 6 (Homo sapiens) (Q96LA8 whole entry, looked up): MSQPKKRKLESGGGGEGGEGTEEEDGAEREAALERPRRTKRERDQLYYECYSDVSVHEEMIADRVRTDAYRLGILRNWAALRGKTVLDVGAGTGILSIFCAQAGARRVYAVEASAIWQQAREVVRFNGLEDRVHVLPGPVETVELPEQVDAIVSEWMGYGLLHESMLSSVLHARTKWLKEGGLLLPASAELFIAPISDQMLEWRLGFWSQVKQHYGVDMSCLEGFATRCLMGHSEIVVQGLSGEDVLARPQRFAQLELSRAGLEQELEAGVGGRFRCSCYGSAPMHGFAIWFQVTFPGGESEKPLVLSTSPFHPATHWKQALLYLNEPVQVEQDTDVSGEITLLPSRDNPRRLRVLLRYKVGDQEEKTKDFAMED

The source made the active and inactive calls. No cut-off for these calls is given here.

With `Cc1ncsc1-c1ccc([C@H](CC(=O)NCCCCCCNC(=O)COc2nc(N)nc(Nc3cc(S(N)(=O)=O)ccc3N[C@@H](c3cccc4c3OC(F)(F)O4)c3ncccc3Cl)n2)NC(=O)[C@@H]2C[C@@H](O)CN2C(=O)[C@@H](NC(=O)C2(F)CC2)C(C)(C)C)cc1`, the fold change (FC) came out at 0.08 in [1]; 0.36 in assay [6]; 0.4 in [7]; 0.07 in assay [8]; 0.32 in assay [9]; 0.03 in assay [10]. Besides, the fold change (FC) in assay [11] is 0.12. Also, the Activity in assay [2] amounted to 70%; in assay [3], 77%; in assay [4] it was 69%; in assay [5], 93%. The result in [12] was inactive. The inhibition result in assay [13], in assay [14] and in [15] was “inactive” each time.
